# Reference: patent EP2945947B1, “INHIBITING THE TRANSIENT RECEPTOR POTENTIAL A1 ION CHANNEL” (Merck Sharp & Dohme Corp., priority 2013, dated 2014)
# Like-named read-outs stand apart in the source and are kept apart here. Marks after values point to notes of the source that are not given here.
# Columns and labels:
# [1] = tested on: Female Sprague Dawley rats; assay: Rodent acute tolerability test with liver function tests (Example 5); assay type: in vivo, rat; set-up: key to Alterations in LFT: (↔) indicates blood levels of markers for potential liver damage within normal range; (↑) indicates blood levels of markers for potential liver damage elevated above normal range; settings: about 24 hours post dose
# Description: Compounds of Formula (Ia) were assessed for acute tolerability in a rodent model at dose levels ranging from 100 - 200 mg/kg based upon the minimum efficacious dose of each compound. Female Sprague Dawley rats were administered up to a 10 mL/kg dose volume of each compound in 0.9% saline at appropriate concentrations as an intravenous bolus via the lateral tail vein. The animals were observed immediately post dose and for up to twenty four hours post dose and clinical observations were recorded. Additionally, approximately twenty four hours post dose animals were euthanized and blood taken for serum chemistry analysis with a focus on liver function tests (LFTs). The maximum tolerated single dose and LFT results are summarized in Table 3, where (↔) indicates blood levels of markers for potential liver damage within normal range and (↑) indicates blood levels of markers for potential liver damage elevated above normal range. Referring to the data in Table 3, LFT blood levels of markers for potential liver damage remained within normal range for the compounds of Formula (Ia), while LFTs were elevated for Comparator Compounds including 5-10 fold elevation above normal for ALT and AST blood levels observed upon administration of Comparative Compound 1. […]
# [2] = Aqueous solubility in buffered solutions, HPLC (Example 2); assay type: physicochemical; settings: kinetic from dmso stock, ambient temperature
# human TRPA1 = human TRPA1 (Homo sapiens, UniProt O75762); assay: Inhibition of the TRPA1 ion channel, whole cell patch configuration (Example 1); assay type: cell-based; settings: current activation 10 µM AITC, read-out: Human TRPA1 IC50 Inward Current
# Description: Compounds of Formula (Ia) inhibit the TRPA1 channel, as measured using the method of Example 1. […] Data for TRPA1 inhibition and for TRPA1 selectivity was obtained by this method for the indicated compounds of Formula (Ia), with the relevant data included in Tables 1a - f below. All currents were recorded in whole-cell configuration using EPC-9 and EPC-10 amplifiers and Patchmaster software (HEKA). […] The standard pipette solution consisted of 140mM CsAsp, 10 mM EGTA, 10 mM HEPES, 2.27 mM MgCl2, 1.91 mM CaCl2, 4 mM MgATP, and 0.1-0.3 mM Na2GTP, with pH adjusted to 7.2 with CsOH. In addition, a solution containing 145 mM CsCl, 10 mM HEPES, 10 mM EGTA and 1 mM MgCl2 (pH 7.2 adjusted with CsOH) can be used. The standard bath solution contained 150 mM NaCl, 10 mM HEPES, 10 mM glucose, 4.5 mM KCl, 1 mM EGTA, 3 mM MgCl2, with pH adjusted to 7.4 with NaOH. In some instances, 2 mM CaCl2 was added in place of EGTA and the concentration of MgCl2 was reduced to 1 mM.
# Data were collected either by continuous recordings at -60 mV or by applying voltage ramps from a holding potential of 0 mV every 4 s. Continuous recordings were collected at 400 Hz and digitally filtered off-line at 10 Hz for presentation. Voltage ramps were applied from - 100 mV to 100 mV over the course of 400 ms, and data were collected at 10 kHz and filtered at 2.9 kHz. Inward and outward currents were analyzed from the ramps at -80 and 80 mV, respectively. Liquid junction potential correction was not used.
# Solutions were switched using a gravity-fed continuous focal perfusion system. To achieve rapid temperature changes, two temperature control, and perfusion systems were employed simultaneously. For temperatures ≥ 22°C, a Warner Instruments bipolar temperature controller (TC-344B) and inline heater (SHM-8) were used. […] Temperatures were confirmed using a thermistor (Warner Instruments, TA-29), with temperatures at the recorded cell estimated to be within +/- 2°C of those reported.
# The antagonist effects of compounds of Formula (Ia) against human TRPA1 ("hTRPA1") and for some compounds rat TRPA1 ("rTRPA1") in a whole cell patch configuration were evaluated using the in vitro assay described above. The current activation tested was 10 µM AITC, and the tested concentrations ranged from 5 µM and 500 nM. Table 1a (Comparative Compounds)
# rats = assay: Rodent formalin pain model (Example 3); assay type: in vivo; settings: rat; for Minimal Efficacious Dose of Compound in Formalin Model: IV, statistically significant difference vs vehicle at 0 - 2 min (p≤0.05); for Duration of Pain Behavior: first two minutes after formalin, vehicle 88.6
# Description: Compounds of Formula (Ia) are active in rodent models of pain induced by direct activation of the TRPA1 channel with intraplantar injection of the TRPA1 agonist formalin. Compounds of Formula (Ia) were tested in the formalin-induced pain test reported by Abbott et. al. Pain. 1995 Jan;60(1):91-102. Dubuisson et al. describe a method for assessing pain and analgesia in rats. Briefly, dilute formalin (50 µL of 3 % formalin) is injected into the plantar surface of the hind paw. […] The individual responsible for counting the pain behaviors in a particular study is blinded to the treatment groups.
# Table 2 is a data table showing the results from testing compounds of Formula (Ia) in the rodent formalin-induced pain model described in […]. Rats were treated with the compounds of Formula (Ia) at various doses (0.1, 0.3, 1, 1.2, 3, 4, 10, or 30 mg/Kg IV) or with a control composition containing the vehicle (i.e., without a compound of Formula (Ia)). Pain behaviors (flinch, lift, lick, bite) were monitored following intraplantar formalin injection. Referring to Table 2, the minimum effective dose was derived from dose resulting in statistically significant difference in behavior at 0 - 2 min time period as compared with vehicle (p≤0.05).
# sheep = assay: Sheep model of experimental allergic asthma, Ascaris suum antigen challenge (Example 6); assay type: in vivo; settings: for inhibition of the AHR / inhibition of the EAR / inhibition of the LAR: sheep; for Average Early Airway Response (EAR) / Average Late Airway Response (LAR) / Airway Hyperresponsiveness (AHR): 4 days; for Average Early Airway Response (EAR): average increase in RL 0-4h after challenge; for Average Late Airway Response (LAR): average increase in RL 5-8h after challenge; for Airway Hyperresponsiveness (AHR): ratio of post challenge PC400 to pre challenge PC400
# Description: Compounds were tested in the sheep model of experimental asthma reported in Abraham WM, Asthma & Rhinitis, 2000: 1205-1227. All animals were tested for both early and late stage airway responses to inhalation challenge with Ascaris suum antigen.
# The unsedated sheep were restrained in a cart in the prone position with their heads immobilized. After topical anesthesia of the nasal passages with 2% lidocaine solution, a balloon catheter was advanced through one nostril into the lower esophagus. The animals were intubated with a cuffed endotracheal tube through the other nostril. Pleural pressure was estimated with the esophageal balloon catheter. Lateral pressure in the trachea was measured with a sidehole catheter advanced through and positioned distal to the tip of the endotracheal tube. Transpulmonary pressure, the difference between tracheal and pleural pressure, was measured with a differential pressure transducer catheter system. For the measurement of pulmonary resistance (RL), the proximal end of the endotracheal tube was connected to a pneumotachograph. The signals of flow and transpulmonary pressure were recorded on an oscilloscope recorder, which was linked to a computer for on-line calculation of RL from transpulmonary pressure, respiratory volume (obtained by digital integration) and flow. Analysis of 5-10 breaths were used for the determination of RL in cm H2O / L x sec^-1.
# Aerosols of Ascaris suum extract (diluted 20:1 with phosphate buffered saline; 82,000 PNU/ml) were generated using a disposable medical nebulizer (Raindrop^R, Puritan Bennett). The output from the nebulizer was directed into a plastic t-piece, one end of which was connected to the inspiratory port of a Harvard respirator. To better control aerosol delivery, a dosimeter consisting of a solenoid valve and a source of compressed air (20 psi) was activated at the beginning of the inspiratory cycle of the Harvard respirator system for 1 s. The aerosol was delivered at a tidal volume of 500 ml and a rate of 20 breaths per minute. Each sheep was challenged with an equivalent dose of antigen in the control and drug trials. Carbachol aerosols were also generated with this same nebulizer system.
# For the carbachol concentration response curves, measurements of RL were repeated immediately after inhalation of buffer and after each administration of 10 breaths of increasing concentrations of carbachol solution (0.25%, 0.5%, 1.0%, 2.0% and 4.0% w/v). To assess airway responsiveness, the cumulative carbachol dose in breath units (BU) that increased RL 400% over the post-buffer value (i.e. PC 400) was calculated from the dose response curve. One breath unit was defined as one breath of a 1% w/v carbachol solution.
# Compound 5-T was given at doses of 1, 3 and 10 mg/kg given orally once a day for 3 days and on day 4, 2 hours before antigen challenge. A group of sheep also received a vehicle control.
# A pre-challenge (baseline) PC 400 was obtained 1-3 days before the start of dosing. Then on the day of antigen challenge, the sheep received the last dose of Compound 5-T 2h before antigen challenge. Values of lung resistance (RL) were measured at baseline, 1.5 h after drug treatment and, then, serially for 8h after challenge with Ascaris suum antigen. Measurements of RL were obtained 24 h after challenge followed by the 24 h post challenge determination of PC 400. Responses to antigen challenge with drug and/or vehicle treatment were compared to each animal's historical control.
# Two groups of animals (n=3) were used for these studies. Group 1 received the vehicle control and the 1 mg/kg dose. Group 2 received the 3 mg/kg dose and the 10 mg/kg dose. A Repeated Measures Analysis of Variance was used to compare the responses within each group to their historical control. If a significant difference was found, then Tukey's post hoc test was used to determine pair wise differences. […]
# [3] = sodium bicarbonate buffer in water for injection/5% dextrose, pH 9.0, 50 mM sodium bicarbonate, read-out: pH 9.0 aqueous solubility
# [4] = sodium phosphate buffer in water for injection/5% dextrose, pH 7.4, 75 mM sodium phosphate, read-out: pH 7.4 aqueous solubility
# Sequence of human TRPA1 (O75762 whole entry): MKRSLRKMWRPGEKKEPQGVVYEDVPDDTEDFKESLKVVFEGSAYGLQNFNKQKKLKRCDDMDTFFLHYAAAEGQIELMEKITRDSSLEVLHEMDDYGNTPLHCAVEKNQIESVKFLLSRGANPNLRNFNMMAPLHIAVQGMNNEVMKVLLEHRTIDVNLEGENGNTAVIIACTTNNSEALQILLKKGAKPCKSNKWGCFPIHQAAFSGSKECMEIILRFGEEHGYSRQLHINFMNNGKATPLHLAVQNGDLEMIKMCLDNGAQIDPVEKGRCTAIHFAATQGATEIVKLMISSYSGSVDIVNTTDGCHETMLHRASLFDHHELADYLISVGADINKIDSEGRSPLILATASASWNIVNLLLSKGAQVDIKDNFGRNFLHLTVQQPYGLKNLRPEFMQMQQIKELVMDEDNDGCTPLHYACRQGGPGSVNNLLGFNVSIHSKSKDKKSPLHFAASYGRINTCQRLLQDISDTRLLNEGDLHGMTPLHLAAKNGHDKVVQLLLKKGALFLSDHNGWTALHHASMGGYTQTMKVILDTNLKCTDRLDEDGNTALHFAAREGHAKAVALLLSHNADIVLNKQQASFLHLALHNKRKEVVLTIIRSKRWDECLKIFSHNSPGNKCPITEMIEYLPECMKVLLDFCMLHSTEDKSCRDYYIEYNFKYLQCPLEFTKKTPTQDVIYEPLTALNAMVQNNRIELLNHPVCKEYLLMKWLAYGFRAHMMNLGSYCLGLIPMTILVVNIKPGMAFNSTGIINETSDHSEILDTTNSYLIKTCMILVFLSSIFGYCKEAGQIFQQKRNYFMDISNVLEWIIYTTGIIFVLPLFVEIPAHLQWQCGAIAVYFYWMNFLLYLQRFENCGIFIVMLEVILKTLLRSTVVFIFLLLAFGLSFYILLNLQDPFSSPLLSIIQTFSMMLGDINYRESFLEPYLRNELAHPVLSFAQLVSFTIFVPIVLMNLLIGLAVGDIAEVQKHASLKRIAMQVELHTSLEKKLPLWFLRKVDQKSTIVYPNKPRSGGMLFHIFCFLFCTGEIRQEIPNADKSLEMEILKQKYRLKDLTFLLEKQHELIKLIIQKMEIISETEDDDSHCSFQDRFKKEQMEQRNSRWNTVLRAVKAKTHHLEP
smiles,measurement,setting,value
"C[C@@H](C(=O)N(COP(=O)(O)O)c1cncc(-c2cnc(N3CCCC3(C)C)nc2)n1)n1cnc2c1c(=O)n(C)c(=O)n2C [Compound 2-E, (S)-(2-(1,3-dimethyl-2,6-dioxo-1,2,3,6-tetrahydro-7H-purin-7-yl)-N-(6-(2-(2,2-dimethylpyrrolidin-1-yl)pyrimidin-5-yl)pyrazin-2-yl)propanamido)methyl dihydrogen phosphate]",Alterations in LFT,[1]; single IV bolus dose 100 mg/kg,↔
same,LFT: % upper normal range ALT serum levels,[1]; single IV bolus dose 100 mg/kg,<100%/<100%
same,LFT: % upper normal range AST serum levels,[1]; single IV bolus dose 100 mg/kg,<100%/<100%
same,solubility kinetic at 24 h,[2]; [3],> 1000 µg/mL
same,solubility kinetic at 24 h,[2]; [4],> 1000 µg/mL
same,IC50,human TRPA1,> 100 nM
same,Minimal Efficacious Dose of Compound in Formalin Model,rats,3 mg/kg
same,Duration of Pain Behavior,rats; dose 0.3 mg/kg IV,80.4 s
same,Duration of Pain Behavior,rats; dose 1 mg/kg IV,77 s
same,Duration of Pain Behavior,rats; dose 3 mg/kg IV,15.1 s
"C[C@H]1CCCN1c1ncc(-c2cncc(N(COP(=O)(O)O)C(=O)[C@H](C)n3cnc4c3c(=O)n(C)c(=O)n4C)n2)cn1 [Compound 3-J, ((S)-2-(1,3-dimethyl-2,6-dioxo-1,2,3,6-tetrahydro-7H-purin-7-yl)-N-(6-(2-((S)-2-methylpyrrolidin-1-yl)pyrimidin-5-yl)pyrazin-2-yl)propanamido)methyl dihydrogen phosphate]",Alterations in LFT,[1]; single IV bolus dose 130 mg/kg,↔
same,LFT: % upper normal range ALT serum levels,[1]; single IV bolus dose 130 mg/kg,<100%/<100%
same,LFT: % upper normal range AST serum levels,[1]; single IV bolus dose 130 mg/kg,<100%/<100%
same,solubility kinetic at 24 h,[2]; [3],> 1000 µg/mL
same,solubility kinetic at 24 h,[2]; [4],> 1000 µg/mL
same,IC50,human TRPA1,> 100 nM
same,Minimal Efficacious Dose of Compound in Formalin Model,rats,3 mg/kg
same,Duration of Pain Behavior,rats; dose 3 mg/kg IV,39.7 s
same,Duration of Pain Behavior,rats; dose 10 mg/kg IV,1.6 s
"C[C@@H](C(=O)Nc1cncc(-c2cnc(N3CCC[C@H]3C(F)(F)F)nc2)n1)n1cnc2c1c(=O)n(C)c(=O)n2C [Compound 5-T, (S)-2-(1,3-dimethyl-2,6-dioxo-1,2,3,6-tetrahydro-7H-purin-7-yl)-N-(6-(2-((S)-2-(trifluoromethyl)pyrrolidin-1-yl)pyrimidin-5-yl)pyrazin-2-yl)propanamide]",inhibition of the AHR,sheep; 1 mg/Kg dose,45%
same,inhibition of the EAR,sheep; 1 mg/Kg dose,no effect on EAR
same,inhibition of the LAR,sheep; 1 mg/Kg dose,48%
same,Average Early Airway Response (EAR),"sheep; 1 mg/Kg orally once a day, Control 1 175 ± 25",171 ± 17
same,Average Late Airway Response (LAR),"sheep; 1 mg/Kg orally once a day, Control 1 113 ± 4",59 ± 1*^+
same,Airway Hyperresponsiveness (AHR),"sheep; 1 mg/Kg orally once a day, Control 1 0.49 ± 0.04",0.71 ± 0.01*^+
same,inhibition of the AHR,sheep; 3 mg/Kg dose,100%
same,inhibition of the EAR,sheep; 3 mg/Kg dose,51%
same,inhibition of the LAR,sheep; 3 mg/Kg dose,78%
same,Average Early Airway Response (EAR),"sheep; 3 mg/Kg orally once a day, Control 2 195 ± 15",95 ± 6
same,Average Late Airway Response (LAR),"sheep; 3 mg/Kg orally once a day, Control 2 107 ± 5",24 ± 1
same,Airway Hyperresponsiveness (AHR),"sheep; 3 mg/Kg orally once a day, Control 2 0.41 ± 0.01",0.92 ± 0.08
same,inhibition of the AHR,sheep; 10 mg/Kg dose,100%
same,inhibition of the EAR,sheep; 10 mg/Kg dose,72%
same,inhibition of the LAR,sheep; 10 mg/Kg dose,79%
same,Average Early Airway Response (EAR),"sheep; 10 mg/Kg orally once a day, Control 2 195 ± 15",55 ± 2*^
same,Average Late Airway Response (LAR),"sheep; 10 mg/Kg orally once a day, Control 2 107 ± 5",22 ± 3
same,Airway Hyperresponsiveness (AHR),"sheep; 10 mg/Kg orally once a day, Control 2 0.41 ± 0.01",1.00 ± 0.14
same,"inhibition of the average early airway response (EAR), compared to Comparative Compound 2",sheep; at the doses tested,improved inhibition
same,inhibition of the average late airway response (LAR) and the airway hyperresponsiveness (AHR),"sheep; doses 1, 3 and 10 mg/kg orally",dose dependent inhibition
same,solubility kinetic at 24 h,[2]; [3],7 µg/mL
same,solubility kinetic at 24 h,[2]; [4],5 µg/mL
same,IC50,human TRPA1,< 25 nM
